IC50 and CC50 data for 20 molecules are collected here from patent US20030207812A1, “Cd45 inhibitors” (priority 2002, published 2003).

Each structure is given as a SMILES string. Where two headings read alike, the source gives them in different places.

Series [1] deals with T1, CD45 (Homo sapiens, UniProt P08575).
T1 construct: incubating the cytosolic portion of CD45 with the compounds and p-nitrophenyl phosphate (pNPP); purchased BIOMOL (Plymouth Meeting, Pa.)
T1 sequence (P08575 599-1306 limits assumed): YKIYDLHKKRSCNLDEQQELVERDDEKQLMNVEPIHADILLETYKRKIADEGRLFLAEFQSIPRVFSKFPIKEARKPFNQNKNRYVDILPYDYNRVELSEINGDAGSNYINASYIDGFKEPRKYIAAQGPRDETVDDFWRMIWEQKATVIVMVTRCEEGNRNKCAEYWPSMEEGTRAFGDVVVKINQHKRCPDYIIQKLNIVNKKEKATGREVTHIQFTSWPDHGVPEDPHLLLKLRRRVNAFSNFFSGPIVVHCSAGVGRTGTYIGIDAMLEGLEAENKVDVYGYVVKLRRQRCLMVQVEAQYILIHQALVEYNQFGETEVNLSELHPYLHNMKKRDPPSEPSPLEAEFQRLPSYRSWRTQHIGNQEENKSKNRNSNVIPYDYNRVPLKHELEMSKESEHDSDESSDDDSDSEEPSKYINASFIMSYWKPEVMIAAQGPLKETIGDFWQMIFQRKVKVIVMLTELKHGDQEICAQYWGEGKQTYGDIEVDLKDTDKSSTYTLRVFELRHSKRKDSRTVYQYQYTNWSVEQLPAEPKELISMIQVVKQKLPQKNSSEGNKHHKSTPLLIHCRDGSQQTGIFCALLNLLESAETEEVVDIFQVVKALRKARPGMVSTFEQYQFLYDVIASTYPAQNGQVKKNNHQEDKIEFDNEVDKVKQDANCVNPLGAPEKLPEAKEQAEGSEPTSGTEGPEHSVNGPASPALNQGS
The series is described as follows: Phosphatase assay using pNPP as substrate. The note with it: CD45 phosphatase, pNPP substrate, pH 7.0; read-out: pNPP IC50. The format is biochemical. As to the method:
Phosphatase assay using pNPP as substrate:
CD45 enzyme was obtained from BIOMOL (Plymouth Meeting, Pa.). Phosphatase activity was assayed in a buffer containing final concentrations of 25 mM imidazole at pH 7.0, 50 mM NaCl, 2.5 mM ethylenediaminetetraacetic acid (“EDTA”), 5 mM dithiothreitol (“DTT”) and 10 μg/mL bovine serum albumin (“BSA”) using pNPP as a substrate.

Series [2] addresses T1, CD45. The series is described as follows: Phosphatase assay using lck 10-mer as substrate. It counts as biochemical. The note with it: CD45 phosphatase, lck carboxy-terminal peptide TEGQpYQPQP substrate, pH 7.2; read-out: Ick IC50. As to the method:
Phosphatase assay using lck 10-mer as substrate:
Phosphatase activity was assayed in 96 well plates in a buffer containing final concentrations of 25 mM HEPES at pH 7.2, 5 mM DTT and 10 μg/mL BSA using the lck carboxy-terminal peptide TEGQpYQPQP as the substrate (Cho, H., Krishnaraj, R., Itoh, M., Kitas, E., Bannwarth, W., Saito, H., Walsh, C. T. 1993. Substrate specificities of catalytic fragments of protein tyrosine phosphatases (HPTPb, LAR, and CD45) toward the phosphotyrosylpeptide substrates and thiophosphotyrosylated peptides as inhibitors. Protein Science 2:977-984). Compounds were tested in a range from 30 to 0.01 μM in a final concentration of 5% DMSO. Enzyme was incubated with substrate with or without compound, at room temperature for 1.5 h. At the end of the incubation period, BIOMOL “Green Reagent” (BIOMOL, Plymouth Meeting, Pa.) was added to each well, the plates incubated at room temperature for 30 min and absorbance read at 620 nm.

Another series has as its system T cells (PBMC). Put plainly: cells. The format is cell-based, human. The settings on record: read-out: T cell prolif. IC50. As to the method: Cell isolation and T cell proliferation assay:
Whole blood was obtained from healthy human blood donors. Peripheral blood mononuclear cells (“PBMC”) were isolated using Lymphoprep density-gradient centrifugation (Nycomed Amersham, Oslo, Norway), washed, counted and resuspended at 2×10^6 cells/mL in RPMI 1640 medium containing glutamine, 0.1 mg/mL gentamycin and 10% heat inactivated human serum. PBMC were transferred to 96-well plates (2×10^5 cells/well) containing compound or vehicle control, with the final concentration of DMSO not to exceed 0.3%, and incubated for 1 hour before addition of the activating anti-CD3 antibody, OKT3 (30ng/mL). After 24 hours in culture, the cells were pulsed with [^3H]thymidine (1 μCi/well) overnight and harvested the next day onto 96-well Packard GF/C filter plates using a Packard Cell Harvester (Packard Instruments, Meriden, Conn.). The filter plate was dried, the bottom of the plate sealed, 25 μL of Microscint 20 scintillation fluid added to each well, the top of the plate sealed with TopSeal-A, and the plate counted on a Packard TopCount. The data from the TopCount is transferred into Excel 5 (Microsoft, Redmond, Wash.) and formatted for EC50 determination using Prism software (GraphPad Software, San Diego, Calif.).

Series [3] is described as follows: Cytotoxicity assay (Calcein-AM uptake). The note with it: human, PHA-expanded T-cell lymphoblasts from PBMC.
Procedure: Calcein-AM (Molecular Probes. Eugene, Oreg.) uptake, as a quantitative measure of cell viability, was used to evaluate the toxic effect of compounds on T cells.
The T-cell lymphoblasts were purified by separation over Lymphoprep, plated at 2×10^5/well in a round bottom 96-well plate containing RPMI with compound and incubated overnight at 37° C. in an incubator containing 5% CO2. The dilution scheme and culture media were the same as those used in the T-cell proliferation assay. After the incubation period, cells were washed with Dulbecco's phosphate-buffered saline (D-PBS) and incubated with 1 μM Calcein-AM for 30-45 mim in D-PBS as described in the technical sheet provided with The LIVE/DEAD Viability/Cytotoxicity Kit from Molecular Probes.
[4] abbreviates: human PBMC, OKT3 30 ng/mL, [3H]thymidine.

With `O=C1C(=O)c2ccc([N+](=O)[O-])cc2-c2ccccc21` [Example 99, 3-Nitro-phenanthrene-9,10-dione], the values for the IC50 at CD45 [1], at CD45 [2] and with T cells (PBMC) (setting [4]) were 500 nM, 4900 nM and 200 nM, respectively. In addition, in series [3], the CC50 is 2800 nM.

Regarding `O=C(Nc1ccc2c(c1)C(=O)C(=O)c1ccccc1-2)c1ccccc1F` [Example 1, N-(9,10-Dioxo-9,10-dihydro-phenanthren-2-yl)-2-fluoro-benzamide], the IC50 on CD45 [1] is 600 nM; on CD45 [2], 11000 nM; in the series with T cells (PBMC) (setting [4]), 3100 nM. In series [3], the CC50 is 20000 nM.

In the case of `CC(=O)c1ccc2c(c1)C(=O)C(=O)c1ccccc1-2` [Example 101, 2-Acetyl-phenanthrene-9,10-dione], the IC50 stood at 800 nM at CD45 [1], 2900 nM at CD45 [2] and 1100 nM in the series on T cells (PBMC) (setting [4]). Also, in series [3], the CC50 was 4500 nM.

As for `COC(=O)CCCCCCC(=O)Nc1cccc2c1-c1ccccc1C(=O)C2=O` [Example 68, 7-(9,10-Dioxo-9,10-dihydro-phenanthren-4-ylcarbamoyl)-heptanoic Acid Methyl Ester], the IC50 on CD45 [1] is 1000 nM; at CD45 [2], 3200 nM; with T cells (PBMC) (setting [4]) it was 1800 nM. For the same molecule, in series [3], the CC50 was 7500 nM.

As to `O=C1C(=O)c2cc(NC(=O)c3ccccc3[N+](=O)[O-])ccc2-c2ccccc21` [Example 5, N-(9,10-Dioxo-9,10-dihydro-phenanthren-2-yl)-2-nitro-benzamide], the IC50 was found to be 300 nM at CD45 [1], 12000 nM at CD45 [2] and 1000 nM with T cells (PBMC) (setting [4]). In addition, in series [3], the 50% cytotoxic concentration (CC50) was 8200 nM.

As for `O=C1C(=O)c2cc(Br)ccc2-c2ccccc21` [Example 96, 2-Bromo-phenanthrene-9,10-dione], the IC50 at CD45 [1] worked out at 370 nM; on CD45 [2] it was 3100 nM; in the series with T cells (PBMC) (setting [4]), 600 nM. Also, the CC50 in series [3] was 5000 nM.

On to `O=C(O)c1ccc2c(c1)C(=O)C(=O)c1ccccc1-2` [Example 97, 9,10-Dioxo-9,10-dihydro-phenanthrene-2-carboxylic Acid], for which the IC50 on CD45 [1] is 1000 nM; on CD45 [2] it was 3300 nM; with T cells (PBMC) (setting [4]), above 30000 nM. Besides, the CC50 in series [3] is above 30000 nM.

As to `CC(=O)c1ccc2c(c1)-c1ccccc1C(=O)C2=O` [Example 100, 3-Acetyl-phenanthrene-9,10-dione], the IC50 on CD45 [1] is 800 nM; at CD45 [2], 4200 nM; in the series with T cells (PBMC) (setting [4]) it was 800 nM. The CC50 in series [3] was 3500 nM.

In the case of `COC(=O)CCC(=O)Nc1ccc2c(c1)C(=O)C(=O)c1ccccc1-2` [Example 80, N-(9,10-Dioxo-9,10-dihydro-phenanthren-2-yl)-succinamic Acid Methyl Ester], the IC50 was 5900 nM at CD45 [1], 4900 nM at CD45 [2] and 700 nM with T cells (PBMC) (setting [4]). Besides, in series [3], the CC50 is 6500 nM.

Consider `O=C(Nc1ccc2c(c1)-c1ccccc1C(=O)C2=O)c1ccccc1F` [Example 12, N-(9,10-Dioxo-9,10-dihydro-phenanthren-3-yl)-2-fluoro-benzamide], for which the results for the IC50 on CD45 [1], on CD45 [2] and in the series on T cells (PBMC) (setting [4]) were 1300 nM, 6000 nM and 3000 nM, respectively. Besides, the CC50 in series [3] is 15000 nM.

With `O=C1C(=O)c2cc([N+](=O)[O-])ccc2-c2ccc([N+](=O)[O-])cc21` [Example 94, 2,7-Dinitro-phenanthrene-9,10-dione], the values for the IC50 at CD45 [1], at CD45 [2] and in the series on T cells (PBMC) (Homo sapiens) were 4100 nM, 5000 nM and 500 nM, respectively. Also, the CC50 in series [3] was 8000 nM.

Turning to `Nc1ccc2c(c1)C(=O)C(=O)c1cccc(N)c1-2` [Example 85, 2,5-diamino-phenanthrene-9,10-dione], the IC50 turned out to be 1400 nM at CD45 [1], 2800 nM at CD45 [2] and 500 nM with T cells (PBMC) (setting [4]). Further, the CC50 in series [3] was 4000 nM.

As for `O=C1C(=O)c2cc(-c3ccc4c(c3)OCO4)ccc2-c2ccccc21` [Example 21, 2-Benzo[1,3]dioxol-5-yl-phenanthrene-9,10-dione], the values for the IC50 at CD45 [1], on CD45 [2] and in the series on T cells (PBMC) (setting [4]) were 990 nM, above 30000 nM and 1800 nM, respectively. Moreover, in series [3], the CC50 was 4900 nM.

Regarding `COC(=O)CCCC(=O)Nc1cccc2c1-c1ccccc1C(=O)C2=O` [Example 67, 4-(9,10-Dioxo-9,10-dihydro-phenanthren-4-ylcarbamoyl)-butyric Acid Methyl Ester], the IC50 at CD45 [1] was 1000 nM; at CD45 [2] it was 2200 nM; in the series with T cells (PBMC) (setting [4]) it was 800 nM. In addition, the CC50 in series [3] was 4000 nM.

With `O=C1C(=O)c2cc(-c3ccsc3)ccc2-c2ccccc21` [Example 17, 2-Thiophen-3-yl-phenanthrene-9,10-dione], the IC50 was 800 nM at CD45 [1], above 30000 nM at CD45 [2] and 1800 nM in the series with T cells (PBMC) (setting [4]). The CC50 in series [3] was 7300 nM.

Turning to `COC(=O)CCCC(=O)Nc1ccc2c(c1)-c1ccccc1C(=O)C2=O` [Example 77, 4-(9,10-Dioxo-9,10-dihydro-phenanthren-3-ylcarbamoyl)-butyric Acid Methyl Ester], the results for the IC50 on CD45 [1], at CD45 [2] and in the series on T cells (PBMC) (setting [4]) were 800 nM, 2900 nM and 1600 nM, respectively. Also, the CC50 in series [3] was 9000 nM.

`O=C1C(=O)c2cc(NC(=O)c3c(Cl)cc(Cl)cc3Cl)ccc2-c2ccccc21` [Example 6, 2,4,6-Trichloro-N-(9,10-dioxo-9,10-dihydro-phenanthren-2-yl)-benzamide]: the concentration for half-maximal inhibition (IC50) is 500 nM on CD45 [1], 16000 nM on CD45 [2] and 1500 nM in the series on T cells (PBMC) (setting [4]). Further, the half-maximal cytotoxic concentration (CC50) in series [3] is 12000 nM.

As for `COC(=O)CCCCCCC(=O)Nc1ccc2c(c1)C(=O)C(=O)c1cccc(NC(=O)CCCCCCC(=O)OC)c1-2` [Example 75, 7-[5-(7-Methoxycarbonyl-heptanoylamino)-9,10-dioxo-9,10-dihydro-phenanthren-2-ylcarbamoyl]-heptanoic Acid Methyl Ester], the IC50 on CD45 [1] was determined as 800 nM; on CD45 [2], 10000 nM; in the series with T cells (PBMC) (setting [4]) it was 2600 nM. For the same molecule, the cytotoxic concentration (CC50) in series [3] was 13000 nM.

Regarding `O=C(O)CNC(=O)c1ccc2c(c1)C(=O)C(=O)c1ccccc1-2` [Example 105, [(9,10-Dioxo-9,10-dihydro-phenanthrene-2-carbonyl)-amino]-acetic acid], the IC50 on CD45 [1] was 800 nM; on CD45 [2] it was 2200 nM; in the series on T cells (PBMC) (setting [4]) it was 4400 nM. For the same molecule, the CC50 in series [3] was above 30000 nM.

Consider `COC(=O)CCCCCCC(=O)Nc1ccc2c(c1)C(=O)C(=O)c1cccc([N+](=O)[O-])c1-2` [Example 64, 7-(5-Nitro-9,10-dioxo-9,10-dihydro-phenanthren-2-ylcarbamoyl)-heptanoic Acid Methyl Ester], for which the IC50 is 1100 nM on CD45 [1], above 30000 nM at CD45 [2] and 4000 nM with T cells (PBMC) (setting [4]). The 50% cytotoxic concentration (CC50) in series [3] was 14000 nM.

As usually defined, the IC50 is the point on the concentration scale where inhibition reaches its midpoint. A word on the CC50: it is the concentration at which the toxic effect on the cells reaches its halfway point.
